Results reported in PubChem BioAssay AID540269 (Sanford-Burnham Center for Chemical Genomics, 2011).
The source made the active and inactive calls. The rule behind the calls is not given here.

These molecules were tested against glucose-6-phosphate dehydrogenase-6-phosphogluconolactonase (Plasmodium falciparum 3D7) (assay: inhibition of P. falciparum G6PD activity – biochemical, kinetic NADPH detection, orthogonal assay, dose response (AID 540269)). Details: purified PfG6PD-6PGL.

Row | SMILES | IC50
1 | Cc1ccc(-c2csc(NC(=O)c3ccc(Br)cc3)c2C(=O)O)cc1 | 29.7 µM
2 | C=CCN1CCc2cccc3c2[C@H]1Cc1ccc(O)c(O)c1-3 | > 80 µM (inactive)
3 | CCC(C)N(CCNC(=O)c1ccc2c(c1)NC(=O)c1ccccc1S2)C1CCCCC1 (configuration not stated) | 6.35 µM
4 | CCC(=O)OCOc1ccc(/C=C2/CCC(CN(C)C)C2=O)cc1 (configuration not stated) | 36.4 µM
5 | CC(CNc1ccccc1O)C(=O)O (configuration not stated) | > 80 µM (inactive)
6 | Cc1ccccc1-n1sc2cc(F)ccc2c1=O | 10.2 µM
7 | COc1ccc2c(c1)c(=Cc1ccc(N(C)C)cc1)c1cc(-c3ccccc3)[n+](C)n12 | 64.4 µM
8 | COC(=O)CCC(=O)OC1(C)C(=O)C2=CN(c3ccccc3)C(c3ccc(OC)cc3)=CC2=C(Br)C1=O (configuration not stated) | > 80 µM (inactive)
9 | O=C(CCc1ccc(S(=O)(=O)N2CCOCC2)cc1)N/N=C/c1ccc(O)c(O)c1O | 36.5 µM
10 | Cc1nnc(Sc2cc(NCCO)c([N+](=O)[O-])c3nonc23)s1 | 36.6 µM
11 | Brc1cc2[nH]cnc2c2ccccc12 | > 80 µM (inactive)
12 | N#Cc1ccc2c(=O)n(-c3ccccc3)sc2c1 | 39.6 µM
13 | O=C(Nc1nnc(S(=O)(=O)N2CCCC2)s1)c1cccc([N+](=O)[O-])c1 | > 80 µM (inactive)
14 | O=C(COc1ccccc1F)OCC(=O)c1ccc([N+](=O)[O-])cc1 | > 80 µM (inactive)
15 | CC1COCC(C)N1C1=C(Cl)C(=O)c2ccccc2C1=O (configuration not stated) | 42.4 µM
16 | COC(=O)[C@H](C)NC(=O)c1cc2c(cn1)[nH]c1ccccc12 | 51 µM
17 | Cc1nn(-c2ccccc2)c(Cl)c1/C=N/Nc1nc2ccccc2n1C | > 80 µM (inactive)
18 | C=CCOc1ccc(CNc2ccc3[nH]c(=O)[nH]c3c2)cc1OC | > 80 µM (inactive)
19 | Cn1c(=O)[nH]c(=O)c2c1nc([N+](=O)[O-])n2Cc1ccccc1 | > 80 µM (inactive)
20 | C=CCN=c1scc(-c2ccco2)n1/N=C/c1ccc(O)c(O)c1O | 58.3 µM
21 | COc1c(O)ccc2c1CN1CCc3cc4c(cc3C1C2)OCO4 (configuration not stated) | > 80 µM (inactive)
22 | CC(=O)OCCCNc1cc(Sc2nc3ccccc3s2)c2nonc2c1[N+](=O)[O-] | 14.9 µM

Row | SMILES | IC50
23 | Cc1[nH]c2ccccc2c1/C=N/NC(=O)c1cccc(S(=O)(=O)Nc2ccccc2Cl)c1 | 59.3 µM
24 | Oc1cc(CNCc2ccccc2)c(O)cc1CNCc1ccccc1 | 53.7 µM
25 | CN1C(=O)C(N=Nc2ccc([N+](=O)[O-])cc2)SC1=S (configuration not stated) | > 80 µM (inactive)
26 | COc1cc(CNc2ccc3[nH]c(=O)[nH]c3c2)ccc1OCc1ccccc1 | > 80 µM (inactive)
27 | O=S(=O)(NCc1csc(-c2ccccc2)n1)c1ccc(Cl)s1 | > 80 µM (inactive)
28 | Cc1ccc(-n2sc3ccccc3c2=O)cc1 | 19.1 µM
29 | CC1(C)CC2(CC(c3ccccc3F)c3ccc(O)c(O)c3O2)NC(=S)N1 (configuration not stated) | 45.8 µM
30 | C=CCSc1nc2sc3c(c2c(=O)n1CC)CCc1ccccc1-3 | > 80 µM (inactive)
31 | Cc1ccc2nc(SCC(=O)NC3CCCc4ccccc43)[nH]c2c1 (configuration not stated) | > 80 µM (inactive)
32 | COc1cc(NCc2ccccc2)c2ncn(C(C)C)c2c1 | > 80 µM (inactive)
33 | Cc1ccc(-c2c(C(=O)N/N=C/c3ccc(C)o3)nnn2-c2nonc2N)cc1 | 51.3 µM
34 | Cc1ccc(NC(=O)c2cc(N3C(=O)C=CC3=O)ccc2N2CCOCC2)cc1 | > 80 µM (inactive)
35 | O=C(CCSCCC(=O)NN=Cc1ccccc1)NN=Cc1ccccc1 | > 80 µM (inactive)
36 | Cc1cc(=O)[nH]c(N/N=C/c2c(C)nn(-c3ccccc3)c2Cl)n1 | 17.1 µM
37 | O=c1c2ccc(F)cc2sn1-c1ccccc1 | 15.4 µM
38 | CN(C)c1ccc(Cc2cc3c(O)ccc(O)c3cc(Cc3ccc(N(C)C)cc3)c2=O)cc1 | 54.7 µM
39 | Cc1ccc(S(=O)(=O)SCCCSS(=O)(=O)c2ccc(C)cc2)cc1 | 35.6 µM
40 | COc1cc(/C=N/n2cc(-c3ccccc3)[nH]c2=S)cc(OC)c1O | 11.2 µM
41 | O=C1C=CC(=O)N1CCNc1ncc(C(F)(F)F)cc1Cl | 34.8 µM
42 | COc1cc(N)c2ncccc2c1OC | > 80 µM (inactive)
43 | O=C(CCl)NCCN1C(=O)S/C(=C\c2cccnc2)C1=O | > 80 µM (inactive)
44 | O=C(Nc1nnc(S(=O)(=O)N2CCCCC2)s1)c1cccc(Br)c1 | 23.8 µM

Row | SMILES | IC50
45 | O=c1c2ccccc2sn1-c1nccs1 | 23.1 µM
46 | O=C(Nc1ccc([N+](=O)[O-])cc1Cl)c1cc(Cl)ccc1O | > 80 µM (inactive)
47 | O=C1CCC[C@@H]2[C@@H](Cc3ccccc3)[C@H](N3CCN(c4ccccc4)CC3)C[C@@H]3CCN1[C@@H]32 | > 80 µM (inactive)
48 | N#Cc1ccc(Oc2cccc3cccnc23)c([N+](=O)[O-])c1 | > 80 µM (inactive)
49 | COc1cccc(-c2c(C(=O)N/N=C/c3ccc(C)o3)nnn2-c2nonc2N)c1 | 12.7 µM
50 | COc1cc(/C=N/Nc2nncn2N)ccc1OCc1c(C)no[n+]1[O-] | > 80 µM (inactive)
51 | CC1=C(C)CS(=O)N(S(=O)(=O)c2ccc(Cl)cc2)C1 (configuration not stated) | > 80 µM (inactive)
52 | CCn1c2ccccc2c2cc(/C=N/n3cn[nH]c3=S)ccc21 | 9.07 µM
53 | O=[N+]([O-])c1cnc(Sc2ccncn2)c([N+](=O)[O-])c1 | 62.8 µM
54 | O=C(Cn1sc2ccccc2c1=O)Nc1ccc(Cl)cc1 | 16 µM
55 | O=C(CBr)c1ccc([N+](=O)[O-])c(CS(=O)(=O)c2ccc(Cl)cc2)c1 | > 80 µM (inactive)
56 | CCCNC(=O)Cn1sc2nc(C)cc(C)c2c1=O | 51.1 µM
57 | CCN(CC)c1ccc(C(=C2C=CC(=[N+](CC)CC)C=C2)c2ccc(N(CC)CC)cc2)cc1 | 16.1 µM
58 | Cc1ccc(/C=C/C(=O)NCCc2cccc(Cl)c2)o1 | > 80 µM (inactive)
59 | COc1ccc(N=C2C(=S)N(c3ccc(OC)cc3)C(=NS(=O)(=O)c3ccccc3)N2c2ccccc2)cc1 | > 80 µM (inactive)
60 | Cc1cccc(C(=O)Nc2nnc(S(=O)(=O)N3CCCCCC3)s2)c1 | 16.9 µM
61 | O=C1C(Cl)=C(NCCc2ccccc2)C(=O)c2ccccc21 | 70.3 µM
62 | c1nc(SSc2ncnc3nc[nH]c23)c2[nH]cnc2n1 | 27 µM
63 | O=C(Nc1nnc(S(=O)(=O)N2CCCCCC2)s1)c1cccc(Br)c1 | 14.1 µM
64 | c1cc2c(cc1NC1CCCCCC1)OCO2 | > 80 µM (inactive)
65 | Nn1c(CSc2nc3ccccc3o2)nnc1CSc1nc2ccccc2o1 | > 80 µM (inactive)
66 | Clc1ccc(N=c2ssnc2Cl)nc1 | > 80 µM (inactive)

Row | SMILES | IC50
67 | CCc1ccccc1N1CSC2=C(C#N)C(c3ccccc3F)CC(=O)N2C1 (configuration not stated) | > 80 µM (inactive)
68 | CCOC(=O)c1c2ccc(OCC(=O)NN)cc2n2ccccc12 | 9.4 µM
69 | O=S(c1ccccc1O)S(=O)c1ccccc1O (configuration not stated) | 36.4 µM
70 | Cc1ccc(NS(=O)(=O)c2ccccc2Cl)c2c1CC(C)(C)O2 | > 80 µM (inactive)
71 | Clc1cccc(Cl)c1CNc1ccc(N2CCCC2)cc1 | 60 µM
72 | COc1ccc(-n2sc3ccccc3c2=O)cc1 | 14.7 µM
73 | Cc1nc2ccc(Nc3nc4cc(S(=O)(=O)N5CCOCC5)ccc4o3)cc2s1 | > 80 µM (inactive)
74 | N#CC(C#N)=C1C=CC=CN1/C(=C\c1ccccc1Cl)C(=O)c1ccccc1 | > 80 µM (inactive)
75 | CC(=O)Nc1cc(OC(C)=O)c2nonc2c1OC(C)=O | > 80 µM (inactive)
76 | Cc1nnc(N/N=C/c2ccc(-c3ccccc3F)o2)n1N | 32.1 µM
77 | Cc1ccc(S(=O)(=O)/N=C2/C=C(C3C(=O)CC(C)(C)CC3=O)C(=O)c3ccccc32)cc1 | > 80 µM (inactive)
78 | O=c1c2ccccc2sn1-c1ccc(S(=O)(=O)N2CCCCC2)cc1 | > 80 µM (inactive)
79 | COc1ccc(OCc2nnc3n2N=C(c2ccccc2)C(CC(=O)O)S3)cc1 (configuration not stated) | > 80 µM (inactive)
80 | Cc1ccc(NC(=O)c2cc(C)n(-c3ccccc3)c2C)cc1 | > 80 µM (inactive)
81 | O=C(N/N=C/c1cccc([N+](=O)[O-])c1)C(=O)N1CCCCCC1 | > 80 µM (inactive)
82 | COc1ccc(C(=O)c2c(C(F)(F)F)oc3c2C(=O)c2ccccc2C3=O)cc1OC | > 80 µM (inactive)
83 | Oc1cc(-n2cccn2)c(O)cc1-n1cccn1 | 68.8 µM
84 | COC(=O)CCC(=O)Nc1sc(Cc2ccccc2)c(C)c1C(N)=O | 35.1 µM
85 | NNC(=O)CN1C(c2ccccc2Br)=Nc2ccc(Br)cc2C1c1ccccc1 (configuration not stated) | 57.2 µM
86 | COc1ccc(N2CSC3=C(C#N)C(c4cc(OC)c(OC)cc4OC)CC(=O)N3C2)c(OC)c1 (configuration not stated) | > 80 µM (inactive)
87 | Oc1ccc(NCc2ccccc2OCc2ccccc2)cc1 | 53.9 µM
88 | O=C(CSc1nc2ccc(Cl)cc2[nH]1)NC1CCCc2ccccc21 (configuration not stated) | > 80 µM (inactive)

Row | SMILES | IC50
89 | Cc1cccc(C(=O)Nc2nnc(S(=O)(=O)N3CCOCC3)s2)c1 | 59.4 µM
90 | CCn1c([N+](=O)[O-])nc2c1c(=O)[nH]c(=O)n2C | > 80 µM (inactive)
91 | Cc1ccc(/C=C/C(=O)NCC2COc3ccccc3O2)o1 (configuration not stated) | > 80 µM (inactive)
92 | COc1cccc(C=Nc2cc(C(C)C)c(O)cc2C)c1O | > 80 µM (inactive)
93 | Cc1c(Cl)c([N+](=O)[O-])nn1Cc1ccc(C(=O)N/N=C\c2cccc(Br)c2)o1 | > 80 µM (inactive)
94 | O=c1c2ccccc2sn1-c1ccc(Cl)cc1 | 17.1 µM
95 | O=C(O)CSc1cc(NS(=O)(=O)c2cccc([N+](=O)[O-])c2)c2ccccc2c1O | > 80 µM (inactive)
96 | COc1ccc(NC(C)C(=O)N/N=C/c2cc(Br)ccc2OC)cc1 (configuration not stated) | > 80 µM (inactive)
97 | CCN1CCCC1CNC(=O)c1ccc2c(c1)NC(=O)/C(=C\c1ccc(C)cc1)S2 (configuration not stated) | 6.79 µM
98 | O=c1c2ccccc2sn1-c1ccc(Cl)cc1Cl | 12.9 µM
99 | Nc1[nH]c(=O)[nH]c(=O)c1N=Cc1ccccc1 | 20.6 µM
100 | Cc1ccc2nc3sc(C(=O)N4CCOCC4)c(N)c3cc2c1 | 37 µM
101 | c1ccc(-c2cn3c(n2)CCc2ccc4cccnc4c2-3)cc1 | > 80 µM (inactive)
102 | CN1CCN(C(=S)C(=O)Nc2ccc(Br)cc2)CC1 | 57.7 µM
103 | C=CCOc1c(Cl)cc(CNc2ccc3[nH]c(=O)[nH]c3c2)cc1OC | > 80 µM (inactive)
104 | Cc1ccc(S(=O)(=O)Oc2cccc(/C=N/Nc3ccc(C(=O)O)cc3)c2)cc1 | 41.4 µM
105 | CCC1(C)CC(C(N)=S)CCO1 (configuration not stated) | > 80 µM (inactive)
106 | COC1=CC(=O)C=C(OC)C1(O)CC(C)=O | > 80 µM (inactive)
107 | Cc1cccc(NC2=C(NC(=O)c3ccccc3)C(=O)c3ccccc3C2=O)c1 | > 80 µM (inactive)
